# From patent publication EP1212395B1, “IMPROVED METHODS, COMPOSITIONS, AND ARTICLES FOR ODOR CONTROL” (THE PROCTER & GAMBLE COMPANY, priority 1999, dated 2001)
# Structures can show the parent of a compound that is named as a salt.
# Assay: Interaction of perfume components with cyclodextrin (CD)
# Type: physicochemical
# Settings: perfume component with cyclodextrin
# Excerpt: The following table illustrates the molecular weight property of some of the preferred perfume versus non-preferred perfume components.
# Examples of Perfume Components for CD Interaction
row,Molecule,CD interaction
1,CCCCCCCCCCCCCC(=O)OC(C)C [Iso-propyl Myristate],weak
2,CC(=O)C(C)=C(C)C(C)C(C)(C)C (centres unmarked) [Koavone],strong
3,CC(C)(O)CCCC1=CCC(C=O)CC1 (centres unmarked) [Lyral],weak
4,CCCCCC1C(=O)CCC1CC(=O)OC (centres unmarked) [Methyl Dihydro Jasmonate],weak
5,CC1COCc2cc3c(cc21)C(C)(C)C(C)C3(C)C (centres unmarked) [Galaxolide],weak
6,"CC(=O)OC1CCC(C(C)(C)C)CC1 (centres unmarked) [Vertenex, para-tert-butylcyclohexyl acetate]",strong
7,CCC(=O)OC1CC2CC1C1CC=CC21 (centres unmarked) [Frutene],strong
8,CCCCCCC(C=O)=Cc1ccccc1 [Hexyl cinnamic Aldehyde],weak
9,CCOC(=O)c1ccccc1C(=O)OCC [Diethyl Phthalate],weak
10,CC(=O)C1(C)CC2=C(CCCC2(C)C)CC1C (centres unmarked) [Iso-E Super],weak
11,a-Me Ionone,strong
12,CC(C=O)Cc1ccc(C(C)C)cc1 (centres unmarked) [Cymal],strong
13,CCCCCCOC(=O)c1ccccc1O [Hexyl Salicylate],weak
14,O=C(Cc1ccccc1)OCCc1ccccc1 [Phenyl-Ethyl-Phenyl Acetate],weak
15,"CC(C=O)Cc1ccc(C(C)(C)C)cc1 (centres unmarked) [Lilial, Lilial (p-t-bucinal)]",strong
16,CC(=O)OC1CC2CC1C1CC=CC21 (centres unmarked) [Flor Acetate],strong
17,CC(=O)OC(C)(C)C1CC=C(C)CC1 (centres unmarked) [Terpinyl Acetate],significant
18,CC(=O)/C=C/C1C(C)=CCCC1(C)C (centres unmarked) [a-ionone],strong

# Assay: Elevation in surface tension of surfactant solution in the presence of cyclodextrin
# Type: physicochemical
# Settings: in the presence of a typical cyclodextrin (about 1% solution)
# Excerpt: Suitable cyclodextrin-compatible surfactants can be readily identified by the absence of effect of cyclodextrin on the surface tension provided by the surfactant. This is achieved by determining the surface tension (in dyne/cm) of aqueous solutions of the surfactant in the presence and in the absence of about 1% of a specific cyclodextrin in the solutions. The aqueous solutions contain surfactant at concentrations of approximately 0.5%, 0.1%, 0.01%, and 0.005%. The cyclodextrin can affect the surface activity of a surfactant by elevating the surface tension of the surfactant solution. If the surface tension at a given concentration in water differs by more than about 10% from the surface tension of the same surfactant in the 1% solution of the cyclodextrin, that is an indication of a strong interaction between the surfactant and the cyclodextrin. The preferred surfactants herein should have a surface tension in an aqueous solution that is different (lower) by less than about 10%, preferably less than about 5%, and more preferably less than about 1% from that of the same concentration solution containing 1% cyclodextrin.
# The cyclodextrin-compatible surfactants described above are either weakly interactive with cyclodextrin (less than 5% elevation in surface tension), or non-interactive (less than 1% elevation in surface tension).
row,Molecule,elevation in surface tension [%]
1,dodecanolpoly(6)ethoxylate,> 10
2,CCCCCCCCCCCCOS(=O)(=O)[O-].[Na+] [sodium dodecyl sulfate],> 10

# Assay: not given
# Settings: cited from earlier work
row,Molecule,stability over a wide pH range
1,"O=c1[nH]sc2ccccc12 [Proxel, 1,2-benzisothiazolin-3-one]",4-12
2,"Cn1sc2c(c1=O)CCC2 [Promexal, 2-methyl-4,5-trimethylene-4-isothiazolin-3-one]",4-12

# Assay: not given
# Settings: in water; cited from earlier work
row,Molecule,solubility in water
1,OCc1ccccc1 [benzyl alcohol],about 4%
2,[Na+].[O-][n+]1ccccc1[S-] [sodium pyrithione],about 50%
3,"[H]/N=C(\N/C(=N/[H])NCCCCCCNC(=N)NC(=N)Nc1ccc(Cl)cc1)Nc1ccc(Cl)cc1 [digluconate salt, 1,1'-hexamethylene bis(5-(p-chlorophenyl)biguanide), reference compound]",about 70%
4,OCCOc1ccccc1 [2-phenoxyethanol],about 2.67%
5,"[H]/N=C(\N/C(=N/[H])NCCCCCCNC(=N)NC(=N)Nc1ccc(Cl)cc1)Nc1ccc(Cl)cc1 [diacetate salt, 1,1'-hexamethylene bis(5-(p-chlorophenyl)biguanide), reference compound]",about 1.8%
6,"CC1(C)C(=O)N(CO)C(=O)N1CO [DMDM hydantoin, 1,3-bis(hydroxymethyl)-5,5-dimethyl-2,4-imidazolidinedione]",more than 50%
7,OCCc1ccccc1 [2-phenylethanol],about 2%
8,"CC(C)(O)C(Cl)(Cl)Cl [chlorobutanol, 1,1,1-Trichloro-2-methylpropan-2-ol]",about 0.8%
9,"O=[N+]([O-])C1(Br)COCOC1 [Bronidox L, 5-bromo-5-nitro-1,3-dioxane]",about 0.46%

# Same assay, conditions: result in words; cited from earlier work
row,Molecule,solubility in water
1,"ClC=CC[N+]12CN3CN(CN(C3)C1)C2.[Cl-] [Dowicil 200, 1-(3-Chlorallyl) -3,5,7-triaza-1-azoniaadamantane chloride]",freely soluble in water
